Assay results from ChEMBL document CHEMBL1201862, “PubChem BioAssay data set” (2004).
Where a name gives a salt, the structure may show the parent alone.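 In this assay, cells in 96-well plates receive the compound at five concentrations for 48 hours. Endpoints are linearly interpolated between the surrounding concentrations. Here, GI50 denotes the concentration required for 50% inhibition of growth.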 Activity calls are given as the source filed them. Rule as the data show it: active = GI50 up to about 1.1 µM and inactive = higher.

Assays:
Assay in all cases: inhibition of tumour cell growth, NCI panel, 48 h
EKVX = tested on: EKVX
SNB-75 = tested on: SNB-75
HOP-62 = tested on: HOP-62
RPMI-8226 = tested on: RPMI-8226
OVCAR-5 = tested on: OVCAR-5
KM12 = tested on: KM12
786-0 = tested on: 786-0
SNB-19 = tested on: SNB-19
HOP-92 = tested on: HOP-92
SK-MEL-5 = tested on: SK-MEL-5
NCI/ADR-RES = tested on: NCI/ADR-RES
A498 = tested on: A498
MDA-MB-435 = tested on: MDA-MB-435
MDA-N = tested on: MDA-N
SK-OV-3 = tested on: SK-OV-3
OVCAR-8 = tested on: OVCAR-8
HCT-116 = tested on: HCT-116
DU-145 = tested on: DU-145
SW-620 = tested on: SW-620
LOX IMVI = tested on: LOX IMVI

| SMILES | GI50 (EKVX) | GI50 (SNB-75) | GI50 (HOP-62) | GI50 (RPMI-8226) | GI50 (OVCAR-5) | GI50 (KM12) | GI50 (786-0) | GI50 (SNB-19) | GI50 (HOP-92) | GI50 (SK-MEL-5) | GI50 (NCI/ADR-RES) | GI50 (A498) | GI50 (MDA-MB-435) | GI50 (MDA-N) | GI50 (SK-OV-3) | GI50 (OVCAR-8) | GI50 (HCT-116) | GI50 (DU-145) | GI50 (SW-620) | GI50 (LOX IMVI) |
| --- | --- | --- | --- | --- | --- | --- | --- | --- | --- | --- | --- | --- | --- | --- | --- | --- | --- | --- | --- | --- |
| N#Cc1c(NC(=O)CCC(=O)O)ccc2ccccc12 | > 100 µM (inactive) | 64.1 µM (inactive) | > 100 µM (inactive) | > 100 µM (inactive) | > 100 µM (inactive) | > 100 µM (inactive) | > 100 µM (inactive) | > 100 µM (inactive) | > 100 µM (inactive) | > 100 µM (inactive) | > 100 µM (inactive) | > 100 µM (inactive) | > 100 µM (inactive) | > 100 µM (inactive) | > 100 µM (inactive) | > 100 µM (inactive) | > 100 µM (inactive) | > 100 µM (inactive) | > 100 µM (inactive) | – |
| CN1CCc2nc(N)nc(-c3nc(N)nc4c3CN(C)CC4)c2C1 | > 100 µM (inactive) | – | > 100 µM (inactive) | > 100 µM (inactive) | > 100 µM (inactive) | > 100 µM (inactive) | > 100 µM (inactive) | > 100 µM (inactive) | > 100 µM (inactive) | > 100 µM (inactive) | > 100 µM (inactive) | > 100 µM (inactive) | > 100 µM (inactive) | > 100 µM (inactive) | > 100 µM (inactive) | > 100 µM (inactive) | > 100 µM (inactive) | > 100 µM (inactive) | > 100 µM (inactive) | > 100 µM (inactive) |
| CC1=NN(C(=O)CC(=O)NC(=O)/C=C\c2ccccc2)C(=O)C1/N=N/c1ccc([N+](=O)[O-])cc1 (stereo not drawn) | 46.9 µM (inactive) | 52.4 µM (inactive) | > 100 µM (inactive) | 85.5 µM (inactive) | > 100 µM (inactive) | 30 µM (inactive) | 83.8 µM (inactive) | > 100 µM (inactive) | 38.3 µM (inactive) | – | > 100 µM (inactive) | 20.5 µM (inactive) | > 100 µM (inactive) | > 100 µM (inactive) | > 100 µM (inactive) | > 100 µM (inactive) | 35.6 µM (inactive) | 55.7 µM (inactive) | > 100 µM (inactive) | > 100 µM (inactive) |
| CC1=NN(c2cccc(Cl)c2)C2(C1=Cc1ccccc1)C(Cl)C(=O)N2c1nc2ccccc2s1 (stereo not drawn) | 33.9 µM (inactive) | – | 20.3 µM (inactive) | 21.9 µM (inactive) | 21.3 µM (inactive) | 17.3 µM (inactive) | 17.5 µM (inactive) | – | 9.14 µM (inactive) | 13.3 µM (inactive) | 20.4 µM (inactive) | 18.2 µM (inactive) | 19.3 µM (inactive) | 19.8 µM (inactive) | 20.9 µM (inactive) | 32.1 µM (inactive) | 16.7 µM (inactive) | 15 µM (inactive) | 19.8 µM (inactive) | 23.7 µM (inactive) |
| COC(=O)N1CC(=O)C(C(=O)NC23CC4CC(CC(C4)C2)C3)C1 (stereo not drawn) | – | – | – | 32.8 µM (inactive) | > 100 µM (inactive) | 41.8 µM (inactive) | 33.3 µM (inactive) | > 100 µM (inactive) | > 100 µM (inactive) | 45.6 µM (inactive) | 84.1 µM (inactive) | > 100 µM (inactive) | > 100 µM (inactive) | > 100 µM (inactive) | – | 73.1 µM (inactive) | 64.6 µM (inactive) | 76.4 µM (inactive) | > 100 µM (inactive) | – |
| Cn1c(COC(=O)NC2CCCCC2)c(COC(=O)NC2CCCCC2)c2ccc3cc(Cl)c(Cl)cc3c21 | 27.7 µM (inactive) | 8.39 µM (inactive) | – | – | 16 µM (inactive) | 15.6 µM (inactive) | 6 µM (inactive) | 11.1 µM (inactive) | 4.88 µM (inactive) | 11.7 µM (inactive) | 53.1 µM (inactive) | 12.7 µM (inactive) | 17.6 µM (inactive) | 12.6 µM (inactive) | 22 µM (inactive) | 28.2 µM (inactive) | 7.43 µM (inactive) | 28.6 µM (inactive) | 6.79 µM (inactive) | 13.6 µM (inactive) |
| COc1nc(C)nc2sc3c(c12)CCCC3 | 38.4 µM (inactive) | 93.3 µM (inactive) | > 100 µM (inactive) | 55.3 µM (inactive) | > 100 µM (inactive) | > 100 µM (inactive) | > 100 µM (inactive) | > 100 µM (inactive) | – | > 100 µM (inactive) | > 100 µM (inactive) | > 100 µM (inactive) | > 100 µM (inactive) | > 100 µM (inactive) | – | > 100 µM (inactive) | > 100 µM (inactive) | > 100 µM (inactive) | > 100 µM (inactive) | > 100 µM (inactive) |
| COc1ccc2nc3c(nc2c1)C(C)(C)C=C3c1ccc(Br)cc1 | > 100 µM (inactive) | 87.7 µM (inactive) | > 100 µM (inactive) | > 100 µM (inactive) | > 100 µM (inactive) | > 100 µM (inactive) | > 100 µM (inactive) | > 100 µM (inactive) | 32.5 µM (inactive) | > 100 µM (inactive) | > 100 µM (inactive) | > 100 µM (inactive) | > 100 µM (inactive) | > 100 µM (inactive) | – | > 100 µM (inactive) | > 100 µM (inactive) | > 100 µM (inactive) | 5.68 µM (inactive) | > 100 µM (inactive) |
| CC(C)C(C/C=C1/CC(CO)(COC(=O)CC(C(C)C)C(C)C)OC1=O)C(C)C (stereo not drawn) | 1.79 µM (inactive) | 1.78 µM (inactive) | 1.34 µM (inactive) | – | 9.42 µM (inactive) | 6.82 µM (inactive) | 5.61 µM (inactive) | 12.5 µM (inactive) | 0.998 µM (active) | 10.4 µM (inactive) | 16 µM (inactive) | 2.98 µM (inactive) | 0.475 µM (active) | 11.5 µM (inactive) | 16.7 µM (inactive) | 16.1 µM (inactive) | 16.2 µM (inactive) | 13.2 µM (inactive) | 0.991 µM (active) | 5.27 µM (inactive) |
| CO[C@H]1C[C@H](n2cc(C)c(=O)[nH]c2=O)O[C@@H]1CO | > 100 µM (inactive) | > 100 µM (inactive) | > 100 µM (inactive) | > 100 µM (inactive) | > 100 µM (inactive) | > 100 µM (inactive) | > 100 µM (inactive) | > 100 µM (inactive) | – | > 100 µM (inactive) | > 100 µM (inactive) | > 100 µM (inactive) | > 100 µM (inactive) | > 100 µM (inactive) | > 100 µM (inactive) | > 100 µM (inactive) | > 100 µM (inactive) | > 100 µM (inactive) | > 100 µM (inactive) | > 100 µM (inactive) |
| Cc1[nH]n(-c2nc3c(c(=O)[nH]2)CCC3)c(=O)c1CCO | > 100 µM (inactive) | 0.0195 µM (active) | > 100 µM (inactive) | > 100 µM (inactive) | > 100 µM (inactive) | > 100 µM (inactive) | > 100 µM (inactive) | > 100 µM (inactive) | – | > 100 µM (inactive) | > 100 µM (inactive) | > 100 µM (inactive) | > 100 µM (inactive) | > 100 µM (inactive) | > 100 µM (inactive) | > 100 µM (inactive) | > 100 µM (inactive) | > 100 µM (inactive) | > 100 µM (inactive) | > 100 µM (inactive) |
| CC1(C)O[C@@H]2COC(=O)[C@@H]2O1 | > 100 µM (inactive) | > 100 µM (inactive) | – | – | > 100 µM (inactive) | > 100 µM (inactive) | > 100 µM (inactive) | > 100 µM (inactive) | > 100 µM (inactive) | > 100 µM (inactive) | > 100 µM (inactive) | > 100 µM (inactive) | > 100 µM (inactive) | > 100 µM (inactive) | > 100 µM (inactive) | > 100 µM (inactive) | > 100 µM (inactive) | > 100 µM (inactive) | > 100 µM (inactive) | > 100 µM (inactive) |
| O=C(/C=C/c1ccccc1)Oc1ccc(C(=O)/C=C/c2ccc(Cl)cc2)cc1 | > 100 µM (inactive) | 75.3 µM (inactive) | > 100 µM (inactive) | 43.3 µM (inactive) | > 100 µM (inactive) | 33.8 µM (inactive) | 31.9 µM (inactive) | 46.1 µM (inactive) | – | 83.4 µM (inactive) | 46.5 µM (inactive) | > 100 µM (inactive) | 25.1 µM (inactive) | 37.2 µM (inactive) | > 100 µM (inactive) | 42.3 µM (inactive) | 83.4 µM (inactive) | 59.8 µM (inactive) | > 100 µM (inactive) | – |
| CC(C)C[C@H](NC(=O)[C@H](Cc1ccccc1)NC(=O)c1cnccn1)B(O)O [BORTEZOMIB] | < 0.01 µM (active) | < 0.01 µM (active) | < 0.01 µM (active) | 0.01 µM (active) | < 0.01 µM (active) | < 0.01 µM (active) | < 0.01 µM (active) | – | < 0.01 µM (active) | – | 0.0141 µM (active) | < 0.01 µM (active) | < 0.01 µM (active) | < 0.01 µM (active) | 0.0329 µM (active) | < 0.01 µM (active) | < 0.01 µM (active) | < 0.01 µM (active) | < 0.01 µM (active) | 0.01 µM (active) |
| C=C1C[C@@H]2CC[C@@]34C[C@H]5O[C@H]6[C@@H](O3)[C@H]3O[C@H](CC[C@@H]3O[C@H]6[C@H]5O4)CC(=O)C[C@@H]3[C@@H](OC)[C@@H](C[C@H](O)CN)O[C@H]3C[C@H]3O[C@@H](CC[C@@H]1O2)C[C@@H](C)C3=C [ERIBULIN MESYLATE] | 0.007 µM (active) | – | 0.00412 µM (active) | 0.000516 µM (active) | – | 0.000326 µM (active) | 0.00328 µM (active) | – | 0.00352 µM (active) | 0.000877 µM (active) | 0.294 µM (active) | 0.00434 µM (active) | 5.96e-05 µM (active) | 7.59e-05 µM (active) | 0.000558 µM (active) | 0.00598 µM (active) | 0.00074 µM (active) | 0.00118 µM (active) | 0.00241 µM (active) | 0.0014 µM (active) |
